Laboratory results from ChEMBL document CHEMBL5465560, “Selectivity Literature for EUbOPEN Chemogenomic Library” (2024).

Columns and labels:
[1] = molecular target: RAF proto-oncogene serine/threonine-protein kinase (Homo sapiens) (UniProt P04049); details: at 10 µM
[2] = molecular target: Ephrin type-A receptor 2 (Homo sapiens) (UniProt P29317); assay: Selectivity interaction (Kinase panel (DSF assay)) EUB0001558a EPHA2
[3] = molecular target: eIF-2-alpha kinase GCN2 (Homo sapiens) (UniProt Q9P2K8); assay: Selectivity interaction (Kinase panel (KiNativ target engagement assay in Jurkat cells)) EUB0001635a EIF2AK4; type: cell-based; details: at 1 µM
Sequence of eIF-2-alpha kinase GCN2 (Homo sapiens) (Q9P2K8 whole entry): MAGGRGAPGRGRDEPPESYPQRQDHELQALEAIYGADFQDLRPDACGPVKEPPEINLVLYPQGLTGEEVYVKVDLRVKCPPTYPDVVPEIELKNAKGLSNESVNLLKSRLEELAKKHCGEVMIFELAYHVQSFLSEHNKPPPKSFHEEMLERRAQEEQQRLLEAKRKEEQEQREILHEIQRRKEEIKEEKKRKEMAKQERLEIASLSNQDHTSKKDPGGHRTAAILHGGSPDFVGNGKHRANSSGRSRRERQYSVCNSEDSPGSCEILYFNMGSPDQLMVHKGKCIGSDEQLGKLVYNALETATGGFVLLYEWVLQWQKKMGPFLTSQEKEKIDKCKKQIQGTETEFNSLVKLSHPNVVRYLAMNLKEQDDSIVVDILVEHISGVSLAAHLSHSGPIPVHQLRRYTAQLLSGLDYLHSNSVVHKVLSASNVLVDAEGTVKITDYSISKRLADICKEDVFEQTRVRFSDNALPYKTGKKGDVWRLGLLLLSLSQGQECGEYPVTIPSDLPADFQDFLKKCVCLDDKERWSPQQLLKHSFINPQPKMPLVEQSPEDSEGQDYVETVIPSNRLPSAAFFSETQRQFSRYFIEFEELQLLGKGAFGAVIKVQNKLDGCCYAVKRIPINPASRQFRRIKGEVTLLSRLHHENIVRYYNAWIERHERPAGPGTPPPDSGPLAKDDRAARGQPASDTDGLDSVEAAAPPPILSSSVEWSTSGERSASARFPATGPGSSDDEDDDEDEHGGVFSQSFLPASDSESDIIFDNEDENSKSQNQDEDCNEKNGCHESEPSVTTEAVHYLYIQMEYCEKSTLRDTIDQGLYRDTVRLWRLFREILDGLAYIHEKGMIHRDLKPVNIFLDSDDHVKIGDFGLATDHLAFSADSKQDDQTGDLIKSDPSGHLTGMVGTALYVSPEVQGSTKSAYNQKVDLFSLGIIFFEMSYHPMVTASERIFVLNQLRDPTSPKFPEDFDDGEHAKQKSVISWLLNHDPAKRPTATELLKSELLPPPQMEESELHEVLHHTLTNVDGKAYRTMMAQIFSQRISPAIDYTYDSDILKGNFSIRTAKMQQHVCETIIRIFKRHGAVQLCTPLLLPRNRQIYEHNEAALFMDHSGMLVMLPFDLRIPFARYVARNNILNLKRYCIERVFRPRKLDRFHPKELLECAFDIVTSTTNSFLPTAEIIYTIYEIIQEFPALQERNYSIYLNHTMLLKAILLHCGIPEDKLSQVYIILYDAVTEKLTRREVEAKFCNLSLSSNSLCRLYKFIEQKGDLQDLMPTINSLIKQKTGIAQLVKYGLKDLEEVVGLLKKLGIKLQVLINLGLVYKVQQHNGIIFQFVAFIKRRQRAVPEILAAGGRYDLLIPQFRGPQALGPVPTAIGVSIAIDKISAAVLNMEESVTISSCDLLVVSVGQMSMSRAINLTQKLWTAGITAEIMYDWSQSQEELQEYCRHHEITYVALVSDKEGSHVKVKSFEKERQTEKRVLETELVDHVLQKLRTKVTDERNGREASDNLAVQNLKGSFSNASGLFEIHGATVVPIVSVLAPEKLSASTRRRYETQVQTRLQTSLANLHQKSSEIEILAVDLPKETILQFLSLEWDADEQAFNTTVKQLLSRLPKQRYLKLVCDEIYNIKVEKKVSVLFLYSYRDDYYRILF

[4] = system: Proto-oncogene tyrosine-protein kinase receptor Ret (Homo sapiens), P07949 [V804L]; assay: Selectivity interaction (KinomeScan (DiscoverX)) EUB0000666a RET; details: at 10 µM
[5] = molecular target: Transient receptor potential cation channel subfamily M member 6 (Homo sapiens) (UniProt Q9BX84); details: at 10 µM
Sequence of Transient receptor potential cation channel subfamily M member 6 (Homo sapiens) (Q9BX84 whole entry): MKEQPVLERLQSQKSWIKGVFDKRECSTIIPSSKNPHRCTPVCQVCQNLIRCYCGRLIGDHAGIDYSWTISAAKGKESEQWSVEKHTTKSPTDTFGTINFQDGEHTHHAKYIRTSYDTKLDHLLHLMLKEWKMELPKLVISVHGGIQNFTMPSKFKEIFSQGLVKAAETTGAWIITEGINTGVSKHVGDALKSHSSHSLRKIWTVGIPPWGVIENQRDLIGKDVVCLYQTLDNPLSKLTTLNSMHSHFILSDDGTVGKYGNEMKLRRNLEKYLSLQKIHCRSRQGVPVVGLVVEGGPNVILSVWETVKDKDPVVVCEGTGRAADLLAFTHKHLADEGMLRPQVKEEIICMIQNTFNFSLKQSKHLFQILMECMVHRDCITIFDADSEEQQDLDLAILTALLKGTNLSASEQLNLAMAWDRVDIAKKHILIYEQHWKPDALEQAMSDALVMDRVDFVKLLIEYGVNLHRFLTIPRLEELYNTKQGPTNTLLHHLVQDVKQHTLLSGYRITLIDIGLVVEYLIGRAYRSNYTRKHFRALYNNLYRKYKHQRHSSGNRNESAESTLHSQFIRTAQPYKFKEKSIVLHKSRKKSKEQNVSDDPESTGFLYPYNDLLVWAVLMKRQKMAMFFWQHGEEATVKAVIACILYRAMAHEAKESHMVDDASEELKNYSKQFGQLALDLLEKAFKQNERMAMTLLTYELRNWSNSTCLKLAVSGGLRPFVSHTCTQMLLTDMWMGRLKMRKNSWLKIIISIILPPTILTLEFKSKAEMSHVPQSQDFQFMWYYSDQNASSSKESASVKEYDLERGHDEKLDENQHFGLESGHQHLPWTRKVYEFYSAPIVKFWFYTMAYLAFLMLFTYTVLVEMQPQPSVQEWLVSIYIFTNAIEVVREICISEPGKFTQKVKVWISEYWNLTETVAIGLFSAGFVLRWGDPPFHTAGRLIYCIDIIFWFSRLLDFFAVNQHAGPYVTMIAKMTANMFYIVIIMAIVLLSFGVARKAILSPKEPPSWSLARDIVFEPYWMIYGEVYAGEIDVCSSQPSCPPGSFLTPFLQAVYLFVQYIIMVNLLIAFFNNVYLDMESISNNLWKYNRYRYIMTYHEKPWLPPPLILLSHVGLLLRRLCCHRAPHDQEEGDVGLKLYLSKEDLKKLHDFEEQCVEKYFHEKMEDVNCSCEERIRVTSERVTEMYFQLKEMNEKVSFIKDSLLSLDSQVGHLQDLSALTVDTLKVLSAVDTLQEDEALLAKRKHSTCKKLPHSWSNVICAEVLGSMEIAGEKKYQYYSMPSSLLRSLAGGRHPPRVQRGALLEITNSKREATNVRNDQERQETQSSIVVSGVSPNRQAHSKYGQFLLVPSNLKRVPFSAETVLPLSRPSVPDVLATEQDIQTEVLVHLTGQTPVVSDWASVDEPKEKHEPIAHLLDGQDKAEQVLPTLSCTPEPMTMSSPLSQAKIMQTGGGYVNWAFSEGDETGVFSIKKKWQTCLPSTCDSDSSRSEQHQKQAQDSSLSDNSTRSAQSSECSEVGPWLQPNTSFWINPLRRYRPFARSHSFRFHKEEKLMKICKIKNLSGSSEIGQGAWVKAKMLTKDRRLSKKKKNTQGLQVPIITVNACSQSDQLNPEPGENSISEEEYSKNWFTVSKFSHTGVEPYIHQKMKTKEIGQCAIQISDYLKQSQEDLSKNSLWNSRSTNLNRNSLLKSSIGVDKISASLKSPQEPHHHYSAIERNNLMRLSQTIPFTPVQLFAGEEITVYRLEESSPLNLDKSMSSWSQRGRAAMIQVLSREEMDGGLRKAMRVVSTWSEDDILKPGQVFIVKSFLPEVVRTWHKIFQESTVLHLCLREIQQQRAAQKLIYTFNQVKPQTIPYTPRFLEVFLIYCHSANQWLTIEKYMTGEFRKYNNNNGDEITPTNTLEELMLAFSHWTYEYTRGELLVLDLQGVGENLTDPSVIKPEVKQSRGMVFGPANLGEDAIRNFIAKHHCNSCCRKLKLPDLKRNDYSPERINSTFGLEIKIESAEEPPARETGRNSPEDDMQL

[6] = molecular target: T1, Homeodomain-interacting protein kinase 4 (Homo sapiens) (UniProt Q8NE63); assay: Selectivity interaction (Kinase panel (Invitrogen)) EUB0000639a HIPK4; details: at 200 nM
T1 sequence (whole entry): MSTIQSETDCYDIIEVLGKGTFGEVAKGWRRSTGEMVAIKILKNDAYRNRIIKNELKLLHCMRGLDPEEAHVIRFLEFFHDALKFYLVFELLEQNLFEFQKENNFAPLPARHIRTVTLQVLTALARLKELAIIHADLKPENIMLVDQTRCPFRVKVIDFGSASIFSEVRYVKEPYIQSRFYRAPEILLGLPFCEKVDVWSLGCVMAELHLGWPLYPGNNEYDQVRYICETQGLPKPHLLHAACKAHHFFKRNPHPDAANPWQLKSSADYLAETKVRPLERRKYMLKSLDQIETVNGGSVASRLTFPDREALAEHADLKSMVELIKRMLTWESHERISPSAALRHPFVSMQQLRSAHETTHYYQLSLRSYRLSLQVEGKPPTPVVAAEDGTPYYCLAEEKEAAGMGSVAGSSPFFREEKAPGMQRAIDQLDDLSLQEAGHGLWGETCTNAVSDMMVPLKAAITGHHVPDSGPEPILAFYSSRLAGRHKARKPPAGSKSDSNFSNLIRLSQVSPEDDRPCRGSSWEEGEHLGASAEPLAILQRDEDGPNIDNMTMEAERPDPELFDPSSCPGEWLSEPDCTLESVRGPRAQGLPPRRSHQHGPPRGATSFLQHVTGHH

[7] = molecular target: T2, Serine/threonine-protein kinase DCLK3 (Homo sapiens) (UniProt Q9C098); assay: Selectivity interaction (KinomeScan (DiscoverX)) EUB0000607a DCLK3; details: at 10 µM
T2 sequence (whole entry): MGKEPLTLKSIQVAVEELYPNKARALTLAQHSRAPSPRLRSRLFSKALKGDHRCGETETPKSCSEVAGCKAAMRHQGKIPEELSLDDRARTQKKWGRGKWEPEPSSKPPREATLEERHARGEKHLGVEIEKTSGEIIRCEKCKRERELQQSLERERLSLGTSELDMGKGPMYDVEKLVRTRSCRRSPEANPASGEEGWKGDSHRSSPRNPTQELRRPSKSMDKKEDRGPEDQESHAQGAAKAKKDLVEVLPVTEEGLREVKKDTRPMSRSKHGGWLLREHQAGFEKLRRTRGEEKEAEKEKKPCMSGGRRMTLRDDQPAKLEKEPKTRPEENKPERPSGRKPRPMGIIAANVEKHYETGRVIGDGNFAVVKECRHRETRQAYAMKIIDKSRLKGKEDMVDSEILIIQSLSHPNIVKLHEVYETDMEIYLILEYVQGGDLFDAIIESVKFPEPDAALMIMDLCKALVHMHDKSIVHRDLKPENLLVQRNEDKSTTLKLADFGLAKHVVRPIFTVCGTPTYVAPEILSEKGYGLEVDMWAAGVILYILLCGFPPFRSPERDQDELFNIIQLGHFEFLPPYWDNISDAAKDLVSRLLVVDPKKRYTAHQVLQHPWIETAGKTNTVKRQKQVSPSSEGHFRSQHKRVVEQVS

[8] = molecular target: Dual specificity protein kinase CLK1 (Homo sapiens, UniProt P49759); assay: Selectivity interaction (KinomeScan (DiscoverX)) EUB0000595a CLK1; details: at 10 µM
[9] = molecular target: MAP kinase-interacting serine/threonine-protein kinase 2 (Homo sapiens, UniProt Q9HBH9); assay: Selectivity interaction (KinomeScan (DiscoverX)) EUB0000045b MKNK2
Sequence of MAP kinase-interacting serine/threonine-protein kinase 2 (Q9HBH9 whole entry, looked up): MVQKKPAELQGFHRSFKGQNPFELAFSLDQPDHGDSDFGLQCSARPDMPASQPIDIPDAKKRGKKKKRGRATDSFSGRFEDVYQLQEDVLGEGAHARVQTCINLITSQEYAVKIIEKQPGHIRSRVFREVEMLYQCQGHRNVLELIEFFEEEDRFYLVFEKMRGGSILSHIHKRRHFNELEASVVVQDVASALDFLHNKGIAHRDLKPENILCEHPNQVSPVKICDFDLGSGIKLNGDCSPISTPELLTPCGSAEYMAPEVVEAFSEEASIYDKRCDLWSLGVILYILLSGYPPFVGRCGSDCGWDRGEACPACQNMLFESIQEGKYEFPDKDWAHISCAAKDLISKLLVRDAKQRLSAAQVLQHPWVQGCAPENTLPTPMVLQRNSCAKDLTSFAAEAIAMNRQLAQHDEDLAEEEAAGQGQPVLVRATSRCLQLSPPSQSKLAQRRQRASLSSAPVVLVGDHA

[10] = molecular target: T3, Serine/threonine-protein kinase PLK4 (Homo sapiens) (UniProt O00444); assay: Selectivity interaction (KinomeScan (DiscoverX)) EUB0000618a PLK4; details: at 10 µM
T3 sequence (whole entry): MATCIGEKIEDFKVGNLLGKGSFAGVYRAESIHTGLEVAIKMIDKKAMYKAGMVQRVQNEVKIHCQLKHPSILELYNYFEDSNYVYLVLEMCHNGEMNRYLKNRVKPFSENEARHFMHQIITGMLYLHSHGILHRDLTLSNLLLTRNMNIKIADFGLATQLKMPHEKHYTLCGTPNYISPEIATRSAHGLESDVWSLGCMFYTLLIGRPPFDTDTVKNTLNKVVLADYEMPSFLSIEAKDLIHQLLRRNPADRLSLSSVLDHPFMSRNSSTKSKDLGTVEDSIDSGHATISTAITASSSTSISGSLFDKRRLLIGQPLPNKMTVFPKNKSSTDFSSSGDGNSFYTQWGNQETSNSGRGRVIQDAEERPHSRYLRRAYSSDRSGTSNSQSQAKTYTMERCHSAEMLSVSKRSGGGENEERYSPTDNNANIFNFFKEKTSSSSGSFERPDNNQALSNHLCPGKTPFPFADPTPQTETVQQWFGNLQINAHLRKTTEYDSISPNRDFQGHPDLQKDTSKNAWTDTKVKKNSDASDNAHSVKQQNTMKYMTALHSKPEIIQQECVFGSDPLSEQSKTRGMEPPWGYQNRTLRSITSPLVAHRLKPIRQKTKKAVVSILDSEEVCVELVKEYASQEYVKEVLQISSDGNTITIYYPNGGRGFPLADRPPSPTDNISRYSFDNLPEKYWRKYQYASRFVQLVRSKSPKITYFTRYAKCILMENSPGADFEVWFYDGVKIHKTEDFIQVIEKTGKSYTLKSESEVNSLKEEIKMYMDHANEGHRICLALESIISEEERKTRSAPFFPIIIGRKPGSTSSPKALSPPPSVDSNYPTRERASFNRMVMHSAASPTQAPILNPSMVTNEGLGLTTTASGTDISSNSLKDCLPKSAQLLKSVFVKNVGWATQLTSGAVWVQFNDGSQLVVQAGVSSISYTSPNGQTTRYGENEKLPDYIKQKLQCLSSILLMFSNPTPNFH

[11] = molecular target: Serine/threonine-protein kinase PAK 6 (Homo sapiens) (UniProt Q9NQU5); assay: Selectivity interaction (KinomeScan (DiscoverX)) EUB0001619a PAK6; details: at 1 µM

Sequence of Ephrin type-A receptor 2 (Homo sapiens) (P29317 whole entry): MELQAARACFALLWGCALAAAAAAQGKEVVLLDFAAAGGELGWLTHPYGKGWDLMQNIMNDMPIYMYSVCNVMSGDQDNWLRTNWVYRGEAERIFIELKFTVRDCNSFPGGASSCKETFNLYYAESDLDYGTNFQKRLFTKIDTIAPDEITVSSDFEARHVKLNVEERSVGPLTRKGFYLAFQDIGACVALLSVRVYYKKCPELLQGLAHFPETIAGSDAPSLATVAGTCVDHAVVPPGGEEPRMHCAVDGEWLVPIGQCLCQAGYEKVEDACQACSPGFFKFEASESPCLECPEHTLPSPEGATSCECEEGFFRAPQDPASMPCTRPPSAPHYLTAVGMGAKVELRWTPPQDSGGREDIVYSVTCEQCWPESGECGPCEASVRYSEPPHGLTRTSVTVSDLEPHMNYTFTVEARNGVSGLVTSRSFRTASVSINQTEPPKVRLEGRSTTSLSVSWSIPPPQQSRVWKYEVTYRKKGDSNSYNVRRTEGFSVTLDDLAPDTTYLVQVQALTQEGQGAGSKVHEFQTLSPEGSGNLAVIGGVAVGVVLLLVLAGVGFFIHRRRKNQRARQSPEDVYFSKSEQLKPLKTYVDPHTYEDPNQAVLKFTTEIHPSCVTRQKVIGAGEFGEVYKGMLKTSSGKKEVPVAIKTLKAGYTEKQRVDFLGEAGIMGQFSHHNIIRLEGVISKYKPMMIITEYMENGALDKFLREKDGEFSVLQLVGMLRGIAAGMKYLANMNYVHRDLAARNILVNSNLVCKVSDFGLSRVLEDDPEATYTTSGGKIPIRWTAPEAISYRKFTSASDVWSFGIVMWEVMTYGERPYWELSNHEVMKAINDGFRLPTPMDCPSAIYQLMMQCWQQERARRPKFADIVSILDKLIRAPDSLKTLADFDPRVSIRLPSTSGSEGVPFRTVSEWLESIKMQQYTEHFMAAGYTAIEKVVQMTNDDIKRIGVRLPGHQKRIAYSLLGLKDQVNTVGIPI

CCN(CC)CCCCNc1ncc2cc(-c3cc(OC)cc(OC)c3)c(NC(=O)NC(C)(C)C)nc2n1
% of control [1]: 100%

CC(C)(O)[C@H](F)CN1Cc2cc(NC(=O)c3cnn4cccnc34)c(N3CCOCC3)cc2C1=O
dTM [2]: 3.4 K

C=CC(=O)Nc1ccc(C(=O)Nc2[nH]nc3c2CN(C(=O)N[C@H](CN(C)C)c2ccccc2)C3(C)C)cc1
% of engagement ([3]; Selectivity number of off-targets 0.0, Selectivity number of targets 233.0, Source Knowledge https://www.sciencedirect.com/science/article/pii/S2451945619300674?via%3Dihub): -7.2%
% of engagement [3]: -16.6%

O=C(NOC[C@H](O)CO)c1ccc(F)c(F)c1Nc1ccc(I)cc1F
% of control [4]: 93%

Cc1cc([C@@H](C)Nc2ccccc2C(=O)O)c2nc(N3CCOCC3)cc(=O)n2c1 [AZD-6482]
% of control [5]: 100%

CC[C@@H]1[C@H](F)C(=O)N[C@@H]1COc1nccc2cc(C(N)=O)c(OC)cc12 [ZIMLOVISERTIB]
% of inhibition [6]: 5.27%

CNC(=O)Nc1ccc(-c2nc(N3CC4CCC(C3)O4)c3cnn(C4CCC5(CC4)OCCO5)c3n2)cc1
% of control [7]: 100%

COCC(=O)NC/C=C/c1ccc2ncnc(Nc3ccc(Oc4ccc(C)nc4)c(C)c3)c2c1 [CP-724714]
% of control [8]: 90%

C=CC(=O)Nc1cc(-n2c(=O)ccc3cnc4ccc(-c5ccc(NS(C)(=O)=O)cc5)cc4c32)ccc1C
% of control ([9]; at 1 µM): 100%
% of control ([9]; at 10 µM): 52%

O[C@H]1CC[C@H](Nc2ncc3nc(Nc4c(F)cc(F)cc4F)n([C@H]4CCOC4)c3n2)CC1
% of control [10]: 100%

N#Cc1cccc(-c2c[nH]c3ncnc(N4CCOCC4)c23)c1
% of control [11]: 66%
